Results as given in the NIST ThermoML archive (doi:10.1021/acs.jced.5b00599).

Details: Gas, Oscillating disk viscometry

O [water]
Details | viscosity [mPa·s]
297.33 K, Mass density=0.092 kg/m3 | 0.00963
297.76 K, Mass density=0.023 kg/m3 | 0.009649
298.16 K, Mass density=0.092 kg/m3 | 0.009654
298.69 K, Mass density=0.129 kg/m3 | 0.009676
298.99 K, Mass density=0.129 kg/m3 | 0.009697
299.38 K, Mass density=0.018 kg/m3 | 0.009722
300.35 K, Mass density=0.018 kg/m3 | 0.009746
301.55 K, Mass density=0.023 kg/m3 | 0.009792
310.44 K, Mass density=0.129 kg/m3 | 0.01008
311.12 K, Mass density=0.023 kg/m3 | 0.01011
311.13 K, Mass density=0.092 kg/m3 | 0.0101
311.52 K, Mass density=0.018 kg/m3 | 0.01013
325.16 K, Mass density=0.092 kg/m3 | 0.01059
325.62 K, Mass density=0.023 kg/m3 | 0.01063
326.81 K, Mass density=0.129 kg/m3 | 0.01064
327.19 K, Mass density=0.018 kg/m3 | 0.01067
338.27 K, Mass density=0.129 kg/m3 | 0.01104
338.47 K, Mass density=0.023 kg/m3 | 0.01107
339.05 K, Mass density=0.018 kg/m3 | 0.01109
339.49 K, Mass density=0.092 kg/m3 | 0.01109
352.03 K, Mass density=0.092 kg/m3 | 0.01154
352.69 K, Mass density=0.018 kg/m3 | 0.01158
352.79 K, Mass density=0.129 kg/m3 | 0.01156
352.84 K, Mass density=0.023 kg/m3 | 0.01158
365.89 K, Mass density=0.092 kg/m3 | 0.01204
366.46 K, Mass density=0.129 kg/m3 | 0.01205
366.97 K, Mass density=0.018 kg/m3 | 0.01208
367.44 K, Mass density=0.023 kg/m3 | 0.0121
380.14 K, Mass density=0.092 kg/m3 | 0.01257
380.24 K, Mass density=0.092 kg/m3 | 0.01257
380.61 K, Mass density=0.129 kg/m3 | 0.01257
380.86 K, Mass density=0.018 kg/m3 | 0.0126
380.91 K, Mass density=0.129 kg/m3 | 0.0126
381.03 K, Mass density=0.023 kg/m3 | 0.0126
382.98 K, Mass density=0.023 kg/m3 | 0.01267
384.22 K, Mass density=0.018 kg/m3 | 0.01273
394.56 K, Mass density=0.092 kg/m3 | 0.01311
394.75 K, Mass density=0.129 kg/m3 | 0.0131
394.87 K, Mass density=0.018 kg/m3 | 0.01313
395.16 K, Mass density=0.023 kg/m3 | 0.01312
408.37 K, Mass density=0.092 kg/m3 | 0.01363
408.69 K, Mass density=0.129 kg/m3 | 0.01365
409.25 K, Mass density=0.023 kg/m3 | 0.01365
410.22 K, Mass density=0.018 kg/m3 | 0.0137
422.63 K, Mass density=0.092 kg/m3 | 0.01418
423.17 K, Mass density=0.129 kg/m3 | 0.01421
423.35 K, Mass density=0.023 kg/m3 | 0.01419
423.87 K, Mass density=0.018 kg/m3 | 0.01423
437.65 K, Mass density=0.092 kg/m3 | 0.01479
437.93 K, Mass density=0.129 kg/m3 | 0.01479
438.48 K, Mass density=0.023 kg/m3 | 0.01478
438.75 K, Mass density=0.018 kg/m3 | 0.01482
466.44 K, Mass density=0.092 kg/m3 | 0.01596
466.96 K, Mass density=0.129 kg/m3 | 0.01598
468.21 K, Mass density=0.018 kg/m3 | 0.01601
468.74 K, Mass density=0.023 kg/m3 | 0.01598
496.27 K, Mass density=0.023 kg/m3 | 0.0171
496.94 K, Mass density=0.092 kg/m3 | 0.01723
497.01 K, Mass density=0.129 kg/m3 | 0.01727
497.08 K, Mass density=0.018 kg/m3 | 0.01723
